From patent US10449223B2, “Use of dehydroeburicoic acid from Antrodia camphorata in the treatment or prevention of diabetes and hyperlipidemia” (priority 2016, dated 2019)

Assays:
[1] = test system: STZ-induced diabetic mice; experiment: Histology of epididymal WAT and liver tissue in STZ-induced diabetic mice; assay type: in vivo, C57BL/6J mice; conditions: 28 days
Excerpt: Parts of EWAT and liver tissue specimens were investigated as previously described.^31,32 Microscopic images were taken using a microscope (Olympus BX51, BX51, Olympus, Tokyo, Japan).

[2] = test system: STZ-induced diabetic mice; experiment: Tissue weight, body weight and food intake in STZ-induced diabetic mice; assay type: in vivo, C57BL/6J mice; conditions: 28 days
DGAT2 = experiment: Semiquantitative RT-PCR, liver tissue: DGAT2 mRNA; assay type: in vivo, C57BL/6J mice; conditions: STZ-induced diabetic mice; Metf 300 mg/kg/day oral, 28 days; relative to CON group (so in the source)
Method: (§1) Total RNA from liver tissue was isolated with a Trizol Reagent (Molecular Research Center, Inc., Cincinnati, Ohio) according to the manufacturer's directions. The integrity of the extracted total RNA was examined by 2% agarose gel electrophoresis, and the RNA concentration was determined by the ultraviolet (UV) light absorbency at 260 nm and 280 nm (Spectrophotometer U-2800A, Hitachi). Total RNA (1 μg) was reverse transcribed to cDNA in a reaction mixture containing buffer, and 5 μL Moloney murine leukemia virus reverse transcriptase (Epicentre, Madison, Wis., USA). The polymerase chain reaction (PCR) was performed in a final 25 μL containing 1 U Blend Taq-Plus (TOYOBO, Japan), 1 μL of the RT first-strand cDNA product, 10 μM of each forward (F) and reverse (R) primer, 75 mM Tris-HCl (pH 8.3) containing 1 mg/L Tween 20, 2.5 mM dNTP, and 2 mM MgCl2. The products were run on 2% agarose gels and stained with ethidium bromide.

PPARγ = experiment: Western blotting: PPARγ in liver and adipose tissue of mice; conditions: STZ-induced diabetic mice; Metf 300 mg/kg/day oral, 28 days
Method: (§2) The study protocol was performed as previously described.^28 Diabetes was induced by intraperitoneal injection of streptozotocin (Sigma Chemical, St. Louis, Mo., USA) for 5 consecutive days. The dosage of STZ was 55 mg/kg (dissolved in 0.05 M cold sodium citrate buffer, pH 4.5). The normal control mice received only citrate buffer of the same volume.
(§3) During the experiment, all mice were fasted overnight, and blood was collected from the retro-orbital sinus. After dosing for 4 weeks, food was removed from the mice at night, and on the next day, the mice after 12 h of fasting were sacrificed. All of the individual tissues were collected and weighed, and parts of tissues were instantly frozen at −80° C. for later target gene analysis.
(§4) PPARα, PPARγ, and FAS proteins were performed by the liver and white adipose tissue of mice. Skeletal muscle from mice was subjected to GLUT4 expression level analysis, and the total membrane fractions were collected with buffer and determined using a described procedure. The protein contents of GLUT4, phospho-AMPK, and total AMPK were detected by Western blotting and determined as described.

GLUT4 = experiment: Western blotting: membrane GLUT4 in skeletal muscle of mice; conditions: STZ-induced diabetic mice; Metf 300 mg/kg/day oral, 28 days
Method: as §2, §3, §4

SREBP1c = experiment: Semiquantitative RT-PCR, liver tissue: SREBP1c mRNA; assay type: in vivo, C57BL/6J mice; conditions: STZ-induced diabetic mice; Metf 300 mg/kg/day oral, 28 days; relative to CON group (so in the source)
Method: as §1

PPARα [3] = experiment: Semiquantitative RT-PCR, liver tissue: PPARα mRNA; assay type: in vivo, C57BL/6J mice; conditions: STZ-induced diabetic mice; Metf 300 mg/kg/day oral, 28 days
Method: as §1

PPARα [4] = experiment: Western blotting: PPARα in liver of mice; conditions: STZ-induced diabetic mice; Metf 300 mg/kg/day oral, 28 days
Method: as §2, §3, §4

PEPCK = experiment: Semiquantitative RT-PCR, liver tissue: PEPCK mRNA; assay type: in vivo, C57BL/6J mice; conditions: STZ-induced diabetic mice; Metf 300 mg/kg/day oral, 28 days; relative to CON group (so in the source)
Method: as §1

AMPK = experiment: Western blotting: phospho-AMPK (Thr172)/total AMPK in skeletal muscle and liver of mice; conditions: STZ-induced diabetic mice; Metf 300 mg/kg/day oral, 28 days
Method: as §2, §3, §4

G6 Pase = experiment: Semiquantitative RT-PCR, liver tissue: G6 Pase mRNA; assay type: in vivo, C57BL/6J mice; conditions: STZ-induced diabetic mice; Metf 300 mg/kg/day oral, 28 days; relative to CON group (so in the source)
Method: as §1

FAS = experiment: Western blotting: FAS in liver and adipose tissue of mice; conditions: STZ-induced diabetic mice; Metf 300 mg/kg/day oral, 28 days
Method: as §2, §3, §4

## CC(C)OC(=O)C(C)(C)Oc1ccc(C(=O)c2ccc(Cl)cc2)cc1 [Feno, fenofibrate, reference compound]
[1]; Feno 250 mg/kg/day oral
  average area of adipocytes in epididymal WAT: 5373.8±194.6 μm^2
[2]; Feno 250 mg/kg/day oral
  Tissue weight: BAT: 0.319 ± 0.030 wt %
  Tissue weight: EWAT: 0.743 ± 0.059 wt %
  Tissue weight: MWAT: 0.795 ± 0.070 wt %
  Tissue weight: RWAT: 0.154 ± 0.016 wt %
  Tissue weight: Visceral fat: 0.889 ± 0.075 wt %

## CN(C)C(=N)N=C(N)N [Metf, metformin, reference compound]
DGAT2
  mRNA levels of DGAT2 in liver: decreased
[1]; Metf 300 mg/kg/day oral
  average area of adipocytes in epididymal WAT: 5308.9±204.7 μm^2
  ballooning of hepatocyte (liver histology): no ballooning phenomenon
PPARγ
  expression levels of PPARγ in adipose tissue: decreased
  expression levels of PPARγ in the liver: decreased
GLUT4
  membrane expression levels of GLUT4 in skeletal muscle vs STZ group: greater
SREBP1c
  mRNA levels of SREBP1c in liver: decreased
PPARα [3]
  mRNA level of PPARα in liver: increased
PPARα [4]
  expression levels of PPARα in the liver: increased
[2]; Metf 300 mg/kg/day oral
  Tissue weight: EWAT: 0.956 ± 0.047 wt %
  Tissue weight: RWAT: 0.176 ± 0.023 wt %
  Tissue weight: Visceral fat: 1.132 ± 0.054 wt %
PEPCK
  mRNA levels of PEPCK in liver: decreased
AMPK
  muscular expression levels of phospho-AMPK/total AMPK compared with the STZ group (second sentence): increased
G6 Pase
  mRNA levels of G6 Pase in liver: decreased
FAS
  expression levels of FAS in adipose tissue: decreased
  expression levels of FAS in the liver: decreased
